Data reported in PubChem BioAssay (NCI).
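The compound was tested at five concentrations on cells cultured in 96-well plates, with a 48-hour exposure period. Here, GI50 denotes the concentration required for 50% inhibition of growth. Definition used: TGI = concentration required for complete inhibition of growth.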

Key:
Assay in all cases: growth of human tumour cells (NCI), 48 h
MALME-3M melanoma = test system: MALME-3M melanoma
NCI-H226 lung = test system: NCI-H226 lung
MDA-MB-231 breast = test system: MDA-MB-231 breast
TK-10 renal = test system: TK-10 renal
UACC-62 melanoma = test system: UACC-62 melanoma
NCI-H460 lung = test system: NCI-H460 lung
NCI-H23 lung = test system: NCI-H23 lung
SF-539 CNS = test system: SF-539 CNS
NCI-H522 lung = test system: NCI-H522 lung
SK-OV-3 ovarian = test system: SK-OV-3 ovarian

Compound | GI50 (MALME-3M melanoma) | TGI (MALME-3M melanoma) | GI50 (NCI-H226 lung) | TGI (NCI-H226 lung) | GI50 (MDA-MB-231 breast) | TGI (MDA-MB-231 breast) | GI50 (TK-10 renal) | TGI (TK-10 renal) | GI50 (UACC-62 melanoma) | TGI (UACC-62 melanoma) | GI50 (NCI-H460 lung) | TGI (NCI-H460 lung) | GI50 (NCI-H23 lung) | TGI (NCI-H23 lung) | GI50 (SF-539 CNS) | TGI (SF-539 CNS) | GI50 (NCI-H522 lung) | TGI (NCI-H522 lung) | TGI (SK-OV-3 ovarian) | GI50 (SK-OV-3 ovarian)
Cc1cc(S(=O)(=O)Nc2nnc(-c3ccccc3)c(-c3ccccc3)n2)c(SCc2ccccc2)cc1Cl | 16.9 µM | 38.7 µM | 27.7 µM | 79.8 µM | 20.2 µM | 41.9 µM | 17.6 µM | 36.1 µM | 16.1 µM | 30.9 µM | 23.8 µM | 65.7 µM | 22.6 µM | 48.1 µM | 19.9 µM | 38.6 µM | 21.8 µM | 53.7 µM |  | 
O=[N+]([O-])C1C2C=CC(C2)[C@H]1c1ccccc1Cl (some centres not stated) |  | > 100 µM |  | 92.2 µM |  |  |  | > 100 µM |  | > 31.6 µM |  | > 100 µM |  | > 100 µM |  | > 100 µM |  | > 31.6 µM | > 31.6 µM | 
CC[N+](CC)(CC)CCCn1c2c(c3ccccc3c1=O)C(=O)c1ccccc1-2 |  |  |  |  | 17.6 µM | 84.2 µM | 1.01 µM | > 100 µM | 9.31 µM | 29.3 µM | 1.85 µM | 4.49 µM | 2.31 µM | 6.42 µM |  |  | 4.71 µM | 21.4 µM | > 100 µM | 52.6 µM
COc1ccc2ccc([Se]c3ccc4ccc(OC)cc4c3)cc2c1 |  | > 100 µM |  | > 100 µM |  |  |  | > 100 µM |  | > 100 µM |  | > 100 µM |  | > 100 µM |  | > 100 µM |  | > 100 µM | > 100 µM | 
CC(=O)/C=C/c1ccc(C2CC(C)=Nc3c(ccc4c3C(=O)c3ccccc3C4=O)N2)cc1 (configuration not stated) |  | > 100 µM |  | > 100 µM |  |  |  | > 100 µM |  | > 100 µM |  | > 100 µM |  | > 100 µM |  | > 100 µM |  | > 100 µM | > 100 µM | 
CN(C)c1ccc2c3c(c(=O)oc2c1)CCC3 |  |  |  | > 100 µM |  | > 100 µM |  | > 100 µM |  | > 100 µM |  | > 100 µM |  | > 100 µM |  | > 100 µM |  | > 100 µM |  | 
O=C1C(=O)N(c2ccc(Cl)c(Cl)c2)C(=O)C(=O)C1c1nc2ccccc2o1 |  | > 100 µM |  | > 100 µM |  |  |  | > 100 µM |  | > 100 µM |  | > 100 µM |  | > 100 µM |  | > 100 µM |  | > 100 µM | > 100 µM | 
C[C@]12CC[C@@H]3c4ccc(O)cc4CC[C@H]3[C@@H]1CC[C@@H]2NS(=O)(=O)Cc1ccc(Cl)cc1 | 2.85 µM | 9.95 µM | 3.19 µM | 12.6 µM | 1.75 µM | 4.54 µM | 3.5 µM | 14.9 µM | 1.92 µM | 4.56 µM | 2.23 µM | 5.31 µM | 2.76 µM | 10.8 µM | 1.88 µM | 4.39 µM |  |  | 7.77 µM | 3.02 µM
O=C(O)C12C3CCCC1C2CC3 (configuration not stated) |  | > 100 µM |  | > 100 µM |  |  |  | > 100 µM |  | > 100 µM |  | > 100 µM |  | > 100 µM |  | > 100 µM |  | > 100 µM | > 100 µM | 
O=C1OC2(c3ccccc3Oc3ccccc32)c2ccccc21 |  | > 100 µM |  | > 100 µM |  |  |  | > 100 µM |  | > 100 µM |  | > 100 µM |  | > 100 µM |  | > 100 µM |  | > 100 µM | > 100 µM | 
